Measurements taken from US20080194531A1, “Methods for Treating Visual Disorders” (priority 2005, published 2008).
Entries after “also recorded” stand apart in the source; their conditions may differ.

What was measured:
[1] = test system: neurosensory retinal degeneration (P23H rat); assay: Outer nuclear layer (ONL) cell counting / retinal histopathology in homozygous P23H rats given TUDCA subcutaneously; format: in vivo
Description: We have studied the use of bile acids (tauroursodeoxycholic acid, TUDCA) for inhibition of neurosensory retinal degeneration in an animal model of retinal degeneration (P23H rat).
Animal Studies: The P23H rat model of inherited retinal degeneration is an animal model of a common mutation found in >10% of autosomal dominantly inherited retinitis pigmentosa in humans. This animal model has been studied in the laboratory of Dr. Olsen at the University of Minnesota. The mechanism of retinal degeneration is mediated by apoptosis, but may follow a separate pathway than that of the rds mouse. The P23H rat model represents a protein conformational disorder that leads to retinal degeneration. Other examples of protein conformation disorders include Huntington's and Parkinson's disease.
(§1) Preliminary Study: Homozygous line 1 and line 3 P23H rats (very strong model of rapid retinal degeneration, especially in the homozygous state), were given 100-200 mg/kg/d of TUDCA via subcutaneous injections while control animals will be given placebo vehicle only. Animals were sacrificed at intervals that correspond to the known retinal degenerations. Eyes were enucleated and the neurosensory retina was examined for signs of neuroprotection by counting the cell nuclei in the various retinal layers (FIG. 1; study design). For each animal studied, 14 sections were taken for each eye with 30-50 separate measurements performed and averaged for each section. Counting the average number of outer nuclear layer (ONL) cells was used to determine the level of retinal injury or loss.

[2] = Animal weight recordings in TUDCA-treated P23H rats; format: in vivo, rat; details: p<0.05, TUDCA 100-200 mg/kg/d subcutaneous, suggests systemic toxicity
Protocol: as §1

[3] = test system: inherited retinal degeneration (rds mouse); details: preliminary work; cited from earlier work
[4] = test system: apoptosis; details: in vitro and in vivo; blocking classic pathways, induction of survival pathways; cited from earlier work
[5] = test system: Huntington's disease animal models; details: animal models of Huntington's disease; cited from earlier work
[6] = test system: Parkinsonian rats; details: cited from earlier work
[7] = test system: neurologic injury after acute ischemic or hemorrhagic stroke; details: cited from earlier work

C[C@H](CCC(=O)NCCS(=O)(=O)O)[C@H]1CC[C@H]2[C@@H]3[C@@H](O)C[C@@H]4C[C@H](O)CC[C@]4(C)[C@H]3CC[C@]12C [TUDCA, tauroursodeoxycholic acid]
thickness of the ONL in histopathologic images, drug treated vs vehicle ([1]; homozygous P23H rat line 1, week 12, TUDCA 100-200 mg/kg/d subcutaneous, FIG. 2): visible difference in the thickness of the drug treated ONL as compared to the vehicle | average number of ONL cells, TUDCA vs vehicle controls ([1]; homozygous P23H rat line 1, weeks 7, 10 and 12, TUDCA 100-200 mg/kg/d subcutaneous, FIG. 3): no statistically significant differences; also recorded: no statistically significant protective effect | rate of retinal degeneration by counting the ONL layer thickness ([1]; homozygous P23H rat line 3, 9 week post-natal time point, p=0.16 (not statistically significant), TUDCA 100-200 mg/kg/d subcutaneous, FIG. 4): trend toward a protective effect | thickness of the ONL in histopathologic images, drug treated vs control ([1]; homozygous P23H rat line 3, TUDCA 100-200 mg/kg/d subcutaneous, FIG. 2): less noticeable difference between the drug treated and the control | animal weight, treated vs controls ([2]; P23H rat line 1, by day 37 and beyond): significant weight loss | animal weight, treated vs controls ([2]; P23H rat line 3, by day 37 and beyond): significant weight loss | electroretinographic response (functional test of vision) [3]: preservation of visual function | protection of the inner nuclear layer of the retina [3]: dramatic protection of the inner nuclear layer of the retina | interruption of apoptosis [4]: will interrupt apoptosis | neuroprotection [5]: neuroprotective | graft survival [6]: improved graft survival | protection against neurologic injury [7]: protect against neurologic injury
